Experimental data published in patent US20030104473A1, “Common ligand mimics: benzimidazoles” (priority 2001, published 2003).
pIC50: −log10 of the molar value. Like-named read-outs stand apart in the source and are kept apart here.

What was measured:
[1] = molecular target: dihydrodipicolinate reductase (DHPR) (Escherichia coli, UniProt P04036); experiment: DHPR kinetic assay, spectrophotometric oxidation of NADPH at 340 nm; type: biochemical
Description: For DHPR analysis, the compounds were screened using a kinetic protocol that spectrophotometrically evaluates oxidation of NADPH.
Stock solutions of each of the reagents were prepared in the following concentrations. Dilutions of the stock solutions were prepared prior to running the assay in the concentrations indicated below. DHPR was diluted in 10 mM HEPES at a pH of 7.4. DHPS (dihydrodipicolinate synthase) was not diluted and was stored in eppindorf tubes.
The L-ASA (L-aspartate semialdehyde) solution was prepared in the following manner. […] stock solution of ASA was prepared. 100 μl of the ASA stock solution was mixed with 150 μl of concentrated NaHCO3 and 375 μl of H2O. For use in the assay, 28.8 mM L-ASA was equal to 625 μl of the solution. The L-ASA stock Aft solution was kept at a temperature of −20° C. After dilution, the pH of the 28.8 mM solution was checked and maintained between 1 and 2.
The DHPS reaction was monitored at 340 nm prior to and after addition of the inhibitor to detect background reaction with the inhibitor. The solution for background detection was a 945 μl solution containing 0.1 HEPES (pH 7.8), 1 mM pyruvate, 6 μM NADPH, 40 μM L-ASA, and 7 μl of 1 mg/ml DHPS at 25° C. in the volumes provided above. The sample solution was then mixed and incubated for 10 minutes. Next, 500 nM solutions of the inhibitors and enough DMSO to provide a final DMSO concentration of 5% of the total assay volume were added. The solution was mixed and incubated for an additional 6 minutes.
In DHPR samples, 5 μl of the diluted DHPR enzyme were added. The sample was mixed for 20 seconds and then the reaction was run for 10 minutes. After a 50 second lag, the samples were read in a Cary spectrophotometer at 340 nm. Reading of the samples was continued until 300 seconds. Cuvette #1 contained the control reaction (no inhibitor), and cuvette #2 contained the positive control reaction in which Cibacron Blue at 2.58 μM was substituted for inhibitor to yield 70 to 80% inhibition. The substrate was kept at a level at least 10 times the Km. The final concentration of L-ASA was about 1 mM.

[2] = molecular target: T1, lactate dehydrogenase (LDH) (Oryctolagus cuniculus, UniProt P13491); experiment: LDH kinetic assay, spectrophotometric oxidation of NADH at 340 nm; type: biochemical, Rabbit Muscle; conditions: Cibacron Blue at 10.3 μM; read-out: inhibition of LDH (positive control)
T1 construct: 10 μl of LDH from Rabbit Muscle; from tissue; host or cells: rabbit muscle
Description: For LDH analysis, the compounds were screened using a kinetic protocol that spectrophotometrically evaluates oxidation of NADH.
(§1) Stock solutions of each of the reagents were prepared in the following concentrations. Dilutions of the stock solutions were prepared prior to running the assay in the concentrations indicated below.
The LDH reaction was monitored at 340 nm prior to and after addition of the inhibitor to detect background reaction with the inhibitor. Solutions of 100 μl of the inhibitors in DMSO were prepared to provide a final DMSO concentration of 5% of the total assay volume. These solutions were incubated for 6 minutes at 25° C. in a 990 μl of a solution containing 0.1 M HEPES, pH 7.4, 10 μM NADH, and 2.5 mM of pyruvate. The reaction was then initiated with 10 μl of LDH from Rabbit Muscle (0.5 μg/ml; 1:2000 dilution of 1.0 mg/ml). After the enzyme was added, the solution was mixed for 20 seconds, and the reaction was run for 10 minutes. After a 50 second lag, the samples were read in a Cary spectrophotometer at 340 nm. Reading of the samples was continued until 300 seconds. Cuvette #1 contained the control reaction (no inhibitor), and cuvette #2 contained the positive control reaction in which Cibacron Blue at 10.3 μM was substituted for inhibitor to yield 50 to 70% inhibition. The substrate was kept at a level at least 10 times the Km.

[3] = molecular target: T2, alcohol dehydrogenase (ADH) (Saccharomyces cerevisiae, UniProt P00330); experiment: ADH kinetic assay, spectrophotometric reduction of NAD+ at 340 nm; type: biochemical, Bakers Yeast; conditions: Cibacron Blue at 15.5 μM; read-out: inhibition of ADH (positive control)
T2 construct: 10 μl of ADH from Bakers Yeast; host or cells: baker's yeast
T2 sequence (P00330 1-348): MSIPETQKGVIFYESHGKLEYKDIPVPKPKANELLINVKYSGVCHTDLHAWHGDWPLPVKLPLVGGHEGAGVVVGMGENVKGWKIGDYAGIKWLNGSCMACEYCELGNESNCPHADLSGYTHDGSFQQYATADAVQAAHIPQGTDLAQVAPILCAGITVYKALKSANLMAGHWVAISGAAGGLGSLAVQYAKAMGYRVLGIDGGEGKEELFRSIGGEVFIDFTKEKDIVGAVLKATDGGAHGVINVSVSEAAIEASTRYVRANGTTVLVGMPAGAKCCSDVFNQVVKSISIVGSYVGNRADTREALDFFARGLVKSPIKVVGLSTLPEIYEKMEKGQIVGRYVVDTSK
Description: For ADH analysis, the compounds were screened using a kinetic protocol that spectrophotometrically evaluates reduction of NAD+.
as §1
The ADH reaction was monitored at 340 nm prior to and after addition of the inhibitor to detect background reaction with the inhibitor. Solutions of 100 μl of the inhibitors in DMSO were prepared to provide a final DMSO concentration of 5% of the total assay volume. These solutions were incubated for 6 minutes at 25° C. in a 990 μl of a solution containing 0.1 M HEPES, pH 8.0, 80 μM NAD+, and 130 mM of ethanol. The reaction was then initiated with 10 μl of ADH from Bakers Yeast ([…]; 1:400 dilution of 1.0 mg/ml). After the enzyme was added, the solution was mixed for 20 seconds, and the reaction was run for 10 minutes. After a 50 second lag, the samples were read in a Cary spectrophotometer at 340 nm. Reading of the samples was continued until 300 seconds. Cuvette #1 contained the control reaction (no inhibitor), and cuvette #2 contained the positive control reaction in which Cibacron Blue at 15.5 μM was substituted for inhibitor to yield 50 to 60% inhibition. The substrate was kept at a level at least 10 times the Km. The final concentration of […] was about 2.5 mM.
Where only a simple read was desired, as in the case of NAD+ concentration determination, 13 μl (10 M stock) of ethanol was used to drive the reaction, and 10 μl of pure enzyme (1 mg/ml) was used. NAD+was soluble at 2 mM, which allowed the concentration determination step to be skipped. In this situation, the procedure was as follows. All of the ingredients except for the enzyme were mixed together. The solution was mixed well and the absorbance at 340 nm read. The enzyme was added and read again at OD 340 after the absorbance stopped changing, generally 10 to 15 minutes after the enzyme was added.

[4] = molecular target: 1-deoxy-D-xylulose-5-phosphate reductase (DOXPR) (Escherichia coli, UniProt P45568); experiment: DOXPR kinetic assay, spectrophotometric oxidation of NADPH at 340 nm; type: biochemical; conditions: Cibacron Blue at 10.32 μM; read-out: inhibition of DOXPR (positive control)
Description: For DOXPR analysis, the compounds were screened using a kinetic protocol that spectrophotometrically evaluates oxidation of NADPH.
Stock solutions of each of the reagents were prepared in the following concentrations. Dilutions of the stock solutions were prepared prior to running the assay in the concentrations indicated below. DOXPR was diluted in 10 mM HEPES at a pH of 7.4.
The DOXPR reaction was monitored at 340 nm prior to and after addition of the inhibitor to detect background reaction with the inhibitor. Solutions of the inhibitors in DMSO were prepared to provide a final DMSO concentration of 5% of the total assay volume. These solutions were incubated for 6 minutes at 25° C. in a 990 μl of a solution containing 0.1 M HEPES, pH 7.4, 1 mM MnCl21.15 mM DOXP, and 8 μM NADPH. The oxidation reaction was then initiated with 10 μl of DOXP reductoisomerase (10 μg/ml). After the enzyme was added, the solution was mixed for 20 seconds, and the reaction was run for 10 minutes. After a 50 second lag, the samples were read in a Cary spectrophotometer at 340 nm. Reading of the samples was continued until 300 seconds. Cuvette #1 contained the control reaction (no inhibitor), and cuvette #2 contained the positive control reaction in which Cibacron Blue at 10.32 μM was substituted for inhibitor to yield 70 to 80% inhibition. The substrate was kept at a level at least 10 times the Km.

[5] = Example 14, common ligand mimics (FIG. 8), read-out: IC50 for DHPR
[6] = Example 15, bi-ligands (FIG. 9), read-out: IC50 value for dihydrodipicolinate reductase (DHPR)

dihydrodipicolinate reductase (DHPR), sequence (P04036 whole entry): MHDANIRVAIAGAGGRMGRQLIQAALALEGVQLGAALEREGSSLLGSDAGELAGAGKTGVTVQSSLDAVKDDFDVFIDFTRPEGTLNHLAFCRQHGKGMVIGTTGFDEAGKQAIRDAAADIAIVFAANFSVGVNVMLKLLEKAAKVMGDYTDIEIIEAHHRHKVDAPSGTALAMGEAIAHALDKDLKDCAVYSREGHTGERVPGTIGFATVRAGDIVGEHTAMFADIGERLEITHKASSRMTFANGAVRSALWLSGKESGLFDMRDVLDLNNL
1-deoxy-D-xylulose-5-phosphate reductase (DOXPR), sequence (P45568 whole entry): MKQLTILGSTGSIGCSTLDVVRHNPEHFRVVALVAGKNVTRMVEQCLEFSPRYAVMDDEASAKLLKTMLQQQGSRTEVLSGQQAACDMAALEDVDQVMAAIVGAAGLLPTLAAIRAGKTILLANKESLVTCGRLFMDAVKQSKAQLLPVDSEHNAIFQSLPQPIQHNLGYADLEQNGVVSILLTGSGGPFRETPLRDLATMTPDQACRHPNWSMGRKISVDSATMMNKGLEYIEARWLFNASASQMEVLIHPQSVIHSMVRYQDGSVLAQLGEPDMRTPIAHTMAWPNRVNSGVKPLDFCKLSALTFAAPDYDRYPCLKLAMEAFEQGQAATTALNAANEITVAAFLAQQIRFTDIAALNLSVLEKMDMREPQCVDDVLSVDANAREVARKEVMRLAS

Row | Structure (SMILES) | pIC50 [1, 5] | pIC50 [1, 6] | also measured
1 | COC(=O)c1ccc(-c2ccc(-c3nc4cc([N+](=O)[O-])ccc4[nH]3)o2)cc1 [4-[5-(5-nitro-1H-benzoimidazol-2-yl)-furan-2-yl]-benzoic acid methyl ester] | < 4.60 | – | –
2 | Nc1c(S(=O)(=O)O)cc(Nc2ccc(Nc3nc(Cl)nc(Nc4ccccc4S(=O)(=O)O)n3)c(S(=O)(=O)O)c2)c2c1C(=O)c1ccccc1C2=O [Cibacron Blue, reference compound] | – | – | inhibition at 2.58 µM ([1]; Cibacron Blue at 2.58 μM, read-out: inhibition of DHPR (positive control)): 70 to 80%; inhibition at 10.3 µM [2]: 50 to 70%; inhibition at 15.5 µM [3]: 50 to 60%; inhibition at 10.32 µM [4]: 70 to 80%
3 | Cc1cccc2[nH]c(-c3ccc(-c4ccc(C(=O)O)cc4)o3)nc12 [compound 6a, 4-[5-(4-methyl-1H-benzimidazol-2-yl)-furan-2-yl]-benzoic acid] | < 4.00 | – | –
4 | Cc1ccc2[nH]c(-c3ccc(-c4ccc(C(=O)O)cc4)o3)nc2c1 [compound 6c, 4-[5-(5-methyl-1-benzoimidazol-2-yl)furan-2-yl]-benzoic acid] | < 4.22 | – | –
5 | O=C(NCCSc1cc(C(=O)O)nc(C(=O)O)c1)c1ccc(-c2ccc(-c3nc4cc([N+](=O)[O-])ccc4[nH]3)o2)cc1 [compound 21a, 4-(2-{4-[5-(5-nitro-1H-benzoimidazol-2-yl)-furan-2-yl]-benzoylamino)-ethylsulfanyl)-pyridine-2,6-dicarboxylic acid] | – | ~6.12 | –
6 | O=C(NCCSc1cc(C(=O)O)nc(C(=O)O)c1)c1ccc(-c2ccc(-c3nc4ccccc4[nH]3)o2)cc1 [compound 21b, 4-(2-{4-[5-(1H-benzoimidazol-2-yl)-furan-2-yl]-benzoylamino}-ethylsulfanyl)-pyridine-2,6-dicarbolxylic acid] | – | < 5.80 | –
